The text below walks through data of patent US20250144107A1, “USE OF A PIKFYVE INHIBITOR IN COMBINATION WITH IMMUNOTHERAPY” (The Regents of the University of Michigan, priority 2023, published 2025).

Series [1] deals with B16-BL6 melanoma model. In words: B16-BL6 lung metastasis model after removal of primary tumors. The format is in vivo, mice. As to conditions: for efficacy of ICB to inhibit metastasis: combination with ICB (anti-PD-1 plus anti-CTLA-4); for lung metastasis: treatment alone. Here is the method: FIG. 8A (Left) is a box plot of tumor volume of the efficacy of immune checkpoint inhibitors in combination with apilimod or ESK981 treatment against metastasis in a subcutaneous B16BL6 tumor; (Middle) is a series of 12 images of the efficacy of immune checkpoint inhibitors in combination with apilimod or ESK981 treatment against metastasis in a subcutaneous B16BL6 tumor; (Right) is a box plot of the counts of lung tumor metastasis treated with immune checkpoint inhibitors in combination with apilimod or ESK981.
All experimental protocols were conducted after approval by the U-M Institutional Animal Care & Use Committee. […] KPC1361 cells were resuspended in PBS, 1:1 (v/v) mixed with Matrigel (BD Biosciences; catalog #: 354248), and orthotopically injected to the pancreases at 250,000 cells in a total volume of 50 μl per injection. B16-F10 cells were resuspended in PBS and injected subcutaneously to both flanks at 400,000 cells per injection. For ACT study, B16-F10-OVA cells were resuspended in PBS and injected subcutaneously to both flanks at 300,000 cells per injection. For lung metastasis experiment, B16-BL6 cells were resuspended in PBS, 1:1 (v/v) mixed with Matrigel and injected subcutaneously to both flanks at 400,000 cells per injection. Fifteen days after tumor cell inoculation, the primary tumors were removed surgically under anesthesia. Thirty-five days after removal of the primary tumors, lung tissues were extracted and fixed, and lung metastasis was quantified. C57BL/6 mice were acquired from The Jackson Laboratory. Measurement of tumor volume began 5-9 days post tumor cell implantation and was performed 2-3 times per week using calipers. Volume measurements of pancreatic tumors were also achieved with calipers, as reported See, e.g., Koikawa, K. et al., Cell 2021; 184(18):4753-4771. In brief, mice were subjected to anesthesia with 2-3% isoflurane, and the abdominal wall then became soft and loose. The mouse was next held with the left hand allowing for the palpation and assessment of the firm pancreatic tumor mass with the right hand. […] Volume (mm^3) of tumor was calculated using (W^2×L)/2, where W stood for minor tumor axis and L for the major. All mice were maintained in a pathogen-free condition, with a 12-hour light/dark cycle.
For ICB treatment in KPC1361 pancreatic tumor-bearing mice, randomization was performed when tumors reached approximately 100 mm^3. For ACT and vaccine experiments, the mice were randomized when tumors reached approximately 35 mm^3. Anti-mouse PD-1 (clone RMP1-14) and its isotype control were purchased from BioXcell, administered intraperitoneally at 250 μg per mouse, biweekly. […]

Series [2] in a line: Body weight of treated tumor-bearing mice. It is filed as in vivo. As to conditions: preclinical models; single agents and in combination with immunotherapies. An excerpt: FIG. 9B is a line graph of the body weight of pancreatic tumor bearing mice, orthotopically injected with KPC1361 cells and treated with an immune checkpoint inhibitor, apilimod, or ESK981 individually, or in combination with each other.
FIG. 11A is a line graph of mice body weight treated with adoptive cell therapy (ACT) in combination with apilimod or ESK981.
FIG. 11B is a line graph of mice body weight treated with personalized vaccines in combination with apilimod or ESK981

The subject of series [3] is KPC1361 (pancreas), B16-F10 (melanoma), 4T1 (breast), and MyC-CaP (prostate). In words: Flow cytometry of MHC-I surface expression in murine cancer cells. The format is cell-based. As to conditions: with or without IFN-γ; in a dose-dependent manner. From the text:
FIG. 1E (Left) is line graphs of flow cytometry measuring MHC-I surface expression in KPC1361 cells, stimulated with or without IFN-γ, treated with DMSO, Apilimod, or ESK981; (Right) are bar graphs of quantification of flow cytometry measuring MHC-I surface expression in KPC1361 cells, stimulated with or without IFN-γ, treated with DMSO, Apilimod, or ESK981.
FIG. 2A (Left) is line graphs of flow cytometry measuring MHC-I surface expression in MyC-CaP cells, stimulated with or without IFN-γ, treated with DMSO, Apilimod, or ESK981; (Right) is a bar graph of quantification of flow cytometry measuring MHC-I surface expression in MyC-CaP cells, stimulated with or without IFN-γ, treated with DMSO, Apilimod, or ESK981.
Cancer cells or the OVA-expressing cancer cells treated in vitro were harvested from dishes, resuspended in buffer MACS (PBS containing 2% FBS and 2 mM EDTA), and stained with Zombie NIR™ Fixable Viability kit (BioLegend: #423106) and fluorophore-conjugated antibody against MHC-I or PE-conjugated antibody against SIINFEKL bound H-2Kb (BioLegend; catalog #141604), respectively. The cells were next washed twice with 1 ml MACS and fixed with 2% paraformaldehyde in PBS for 15 minutes at room temperature. The cells were then subjected to the flow cytometer (SONY SH800S) for measuring surface expression of MHC-I or SIINFEKL bound H-2Kb, respectively. […]
In general terms: In flow cytometry, cells or beads pass a laser one at a time.

For `CC(C)Cn1c2ccc(Nc3ncccn3)cc2c2c3c(c4c(c21)CCc1nn(C)cc1-4)C(=O)NC3` [ESK981, 13-isobutyl-4-methyl-10-(pyrimidin-2-ylamino)-1,2,4,7,8,13-hexahydro-6H-indazolo[5,4-a]pyrrolo[3,4-c]carbazol-6-one], in series [1], the “efficacy of ICB to inhibit metastasis” value is on record as “strongly enhanced” and the lung metastasis entry was “reduction of lung metastasis”. In addition, in series [2], the safety profile result is listed as “favorable safety profiles”. The “constitutive and induced surface expression of MHC-I” value in series [3] is reported as “upregulated”.
The like results for `Cc1cccc(/C=N/Nc2cc(N3CCOCC3)nc(OCCc3ccccn3)n2)c1` [apilimod, N-[(E)-(3-methylphenyl)methylideneamino]-6-morpholin-4-yl-2-(2-pyridin-2-ylethoxy)pyrimidin-4-amine] were, in that order, “strongly enhanced”, “reduction of lung metastasis”, “favorable safety profiles” and “upregulated”.
